# System: IN double-mutant G140S-Q148H (SH)
# Format: biochemical
smiles,measurement,value
"Cc1nnc(C(=O)NC(C)(C)c2nc(C(=O)NCc3ccc(F)cc3)c(O)c(=O)n2C)o1 [RAL, Raltegravir]",increase in IC50 for 3′-P compared to WT (resistance factor),more than 62 fold

# Source: paper PMC2866738 (Biochemistry, 2010)
